Patent US20250205342A1, “IRAK DEGRADERS AND USES THEREOF” (Kymera Therapeutics, Inc., priority 2022, published 2025)

Assays:
IRAK4 [1] = target: T1, IRAK4 (Homo sapiens, UniProt Q9NWZ3); experiment: hPBMC IRAK4 degradation flow assay (monocytes); type: cell-based; parameters: endogenous in cells; host or cells: human PBMCs (monocytes, CD14 positive gate); conditions: CD14 positive monocytes, 20 h, read-out: hPBMC monocyte DC50 at 20 h
T1 sequence (Q9NWZ3 1-460): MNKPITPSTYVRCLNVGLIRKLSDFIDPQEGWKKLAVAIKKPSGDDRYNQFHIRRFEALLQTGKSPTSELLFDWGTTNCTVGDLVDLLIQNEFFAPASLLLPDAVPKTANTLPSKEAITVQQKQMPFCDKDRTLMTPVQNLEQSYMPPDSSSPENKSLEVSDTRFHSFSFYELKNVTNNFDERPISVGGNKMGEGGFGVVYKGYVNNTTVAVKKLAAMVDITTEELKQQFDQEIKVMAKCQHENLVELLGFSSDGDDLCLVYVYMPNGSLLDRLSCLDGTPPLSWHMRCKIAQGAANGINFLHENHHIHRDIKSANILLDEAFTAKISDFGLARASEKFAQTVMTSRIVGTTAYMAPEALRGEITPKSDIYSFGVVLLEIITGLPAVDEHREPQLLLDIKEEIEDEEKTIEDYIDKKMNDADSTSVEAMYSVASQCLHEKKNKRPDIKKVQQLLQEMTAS
Outline: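 Thawed human PBMCs treated 20 h (or 4 h) at 37° C. with 10-point 5-fold compound dilutions, 0.1% DMSO, then fixed, methanol-permeabilized and stained for IRAK4 and lineage markers by flow, with monocytes gated CD14+. IRAK4 MFI normalized to DMSO and 10 µM control; DC50 and max degradation from 4-parameter logistic fit.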

IRAK4 [2] = target: T1, IRAK4; experiment: IRAK4 degradation in OCI-LY10 (MSD, Meso Scale Discovery); type: cell-based; parameters: endogenous in cells; host or cells: OCI-LY10; conditions: OCI-LY10 cells, 24 h
Outline: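 OCI-LY10 cells (300,000/well) were treated with an 8-point 1:3 series (top 1 to 10 μM) for 4 to 24 h at 37 °C. IRAK4 in RIPA lysates was quantified by MSD sandwich immunoassay with two anti-IRAK4 antibodies. DC50 was fitted with a three-parameter logistic equation.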

DC50 (IRAK4 [1]) [µM]	DC50 (IRAK4 [2]) [µM]	Compound
> 10	> 10	CC(C)(O)c1cc2nn([C@H]3CC[C@H](CNCCCc4cc(C(=O)Nc5ccc(=O)n(CC(=O)O)c5)cc(-c5cccnc5)c4)CC3)cc2cc1NC(=O)c1cccc(C(F)(F)F)n1 [Compound I-80]
> 10	> 10	CCOC(=O)Cn1cc(NC(=O)c2cccc3c2ccn3CCCNC[C@H]2CC[C@H](n3cc(NC(=O)c4cnn5ccc(N6C[C@H]7C[C@@H]6CO7)nc45)c(C(F)F)n3)CC2)ccc1=O [Compound I-81]
> 10	> 10	CCOC(=O)Cn1cc(NC(=O)c2cc(CCCNC[C@H]3CC[C@H](n4cc5cc(NC(=O)c6cccc(C(F)(F)F)n6)c(C(C)(C)O)cc5n4)CC3)cc(-c3cccnc3)c2)ccc1=O [Compound I-82]
> 10	> 10	CCOC(=O)Cn1cc(NC(=O)c2cc(CCCNC[C@H]3CC[C@H](n4cc(NC(=O)c5cnn6ccc(N7C[C@H]8C[C@@H]7CO8)nc56)c(C(F)F)n4)CC3)cc(-c3cccnc3)c2)ccc1=O [Compound I-83]
1 to 10	> 10	CC(C)(O)c1cc2nn([C@H]3CC[C@H](CNCCCCCCCCCc4cncc(-c5cccc(C(=O)Nc6ccc(=O)n(CC(=O)O)c6)c5)c4)CC3)cc2cc1NC(=O)c1cccc(C(F)(F)F)n1 [Compound I-84]
> 10	> 10	O=C(O)Cn1cc(NC(=O)c2cccc(-c3cncc(CCCCCCCCCNC[C@H]4CC[C@H](n5cc(NC(=O)c6cnn7ccc(N8C[C@H]9C[C@@H]8CO9)nc67)c(C(F)F)n5)CC4)c3)c2)ccc1=O [Compound I-85]
> 10	> 10	CC(C)(O)c1cc2nn([C@H]3CC[C@H](CNCCCc4cncc(-c5cccc(C(=O)Nc6ccc(=O)n(CC(=O)O)c6)c5)c4)CC3)cc2cc1NC(=O)c1cccc(C(F)(F)F)n1 [Compound I-86]
> 10	> 10	O=C(O)Cn1cc(NC(=O)c2cccc(-c3cncc(CCCNC[C@H]4CC[C@H](n5cc(NC(=O)c6cnn7ccc(N8C[C@H]9C[C@@H]8CO9)nc67)c(C(F)F)n5)CC4)c3)c2)ccc1=O [Compound I-87]
0.1 to 1	1 to 10	CCOC(=O)Cn1cc(NC(=O)c2cccc(-c3cncc(CCCCCCCCCNC[C@H]4CC[C@H](n5cc6cc(NC(=O)c7cccc(C(F)(F)F)n7)c(C(C)(C)O)cc6n5)CC4)c3)c2)ccc1=O [Compound I-88, Ethyl 2-[5-[[3-[5-[9-[4-[6-(1-hydroxy-1-methyl-ethyl)—5-[[6-(trifluoromethyl)pyridine-2-carbonyl]amino]indazol-2-yl]cyclohexyl]methylamino]nonyl]-3-pyridyl]benzoyl]amino]-2-oxo-1-pyridyl acetate]
1 to 10	1 to 10	CCOC(=O)Cn1cc(NC(=O)c2cccc(-c3cncc(CCCCCCCCCNC[C@H]4CC[C@H](n5cc(NC(=O)c6cnn7ccc(N8C[C@H]9C[C@@H]8CO9)nc67)c(C(F)F)n5)CC4)c3)c2)ccc1=O [Compound I-89]
> 10	> 10	CCOC(=O)Cn1cc(NC(=O)c2cccc(-c3cncc(CCCNC[C@H]4CC[C@H](n5cc6cc(NC(=O)c7cccc(C(F)(F)F)n7)c(C(C)(C)O)cc6n5)CC4)c3)c2)ccc1=O [Compound I-90]
> 10	> 10	CCOC(=O)Cn1cc(NC(=O)c2cccc(-c3cncc(CCCNC[C@H]4CC[C@H](n5cc(NC(=O)c6cnn7ccc(N8C[C@H]9C[C@@H]8CO9)nc67)c(C(F)F)n5)CC4)c3)c2)ccc1=O [Compound I-91]
> 10	> 10	O=C(O)Cn1cc(NC(=O)c2cccc(-c3cncc(CCCCCCNC[C@H]4CC[C@H](n5cc(NC(=O)c6cnn7ccc(N8C[C@H]9C[C@@H]8CO9)nc67)c(C(F)F)n5)CC4)c3)c2)ccc1=O [Compound I-92]
> 10	> 10	O=C(O)Cn1cc(NC(=O)c2cc(CCCCCCNC[C@H]3CC[C@H](n4cc(NC(=O)c5cnn6ccc(N7C[C@H]8C[C@@H]7CO8)nc56)c(C(F)F)n4)CC3)cc(-c3cccnc3)c2)ccc1=O [Compound I-93]
